Laboratory results: article PMC6152052, “Molecular Structure–Affinity Relationship of Flavonoids in Lotus Leaf (Nelumbo nucifera Gaertn.) on Binding to Human Serum Albumin and Bovine Serum Albumin by Spectroscopic Method” (Molecules : A Journal of Synthetic Chemistry and Natural …, 2017)
Where two headings read alike, the source gives them in different places.

Assays:
[1] = target: T1, human serum albumin (HSA) (Homo sapiens, UniProt P02768); experiment: intrinsic fluorescence quenching, double-log plot; type: binding
T1 construct: gene ALB; 585 residues, 66,500 Da, single non-glycosylated chain
Source text: intrinsic fluorescence quenching, double-log plot on human serum albumin (HSA)

[2] = target: T2, bovine serum albumin (BSA) (Bos taurus, UniProt P02769); experiment: intrinsic fluorescence quenching, double-log plot; type: binding
T2 construct: gene ALB
Source text: intrinsic fluorescence quenching, double-log plot on bovine serum albumin (BSA)

T1 sequence (P02768 25-609): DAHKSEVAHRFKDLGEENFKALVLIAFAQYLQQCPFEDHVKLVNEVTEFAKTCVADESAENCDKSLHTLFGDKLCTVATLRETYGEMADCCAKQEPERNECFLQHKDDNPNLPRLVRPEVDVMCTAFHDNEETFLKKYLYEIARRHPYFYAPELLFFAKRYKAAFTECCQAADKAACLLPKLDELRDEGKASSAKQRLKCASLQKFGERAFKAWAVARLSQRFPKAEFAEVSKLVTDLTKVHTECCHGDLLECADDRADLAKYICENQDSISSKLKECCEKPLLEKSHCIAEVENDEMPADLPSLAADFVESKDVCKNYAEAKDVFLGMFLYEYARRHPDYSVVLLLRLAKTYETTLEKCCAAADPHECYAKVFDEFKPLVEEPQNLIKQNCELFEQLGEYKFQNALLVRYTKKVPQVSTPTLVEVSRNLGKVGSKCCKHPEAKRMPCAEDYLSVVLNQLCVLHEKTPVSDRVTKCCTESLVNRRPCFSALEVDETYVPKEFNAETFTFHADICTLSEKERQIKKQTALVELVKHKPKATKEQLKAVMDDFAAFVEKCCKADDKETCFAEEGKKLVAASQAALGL
T2 sequence (P02769 25-607): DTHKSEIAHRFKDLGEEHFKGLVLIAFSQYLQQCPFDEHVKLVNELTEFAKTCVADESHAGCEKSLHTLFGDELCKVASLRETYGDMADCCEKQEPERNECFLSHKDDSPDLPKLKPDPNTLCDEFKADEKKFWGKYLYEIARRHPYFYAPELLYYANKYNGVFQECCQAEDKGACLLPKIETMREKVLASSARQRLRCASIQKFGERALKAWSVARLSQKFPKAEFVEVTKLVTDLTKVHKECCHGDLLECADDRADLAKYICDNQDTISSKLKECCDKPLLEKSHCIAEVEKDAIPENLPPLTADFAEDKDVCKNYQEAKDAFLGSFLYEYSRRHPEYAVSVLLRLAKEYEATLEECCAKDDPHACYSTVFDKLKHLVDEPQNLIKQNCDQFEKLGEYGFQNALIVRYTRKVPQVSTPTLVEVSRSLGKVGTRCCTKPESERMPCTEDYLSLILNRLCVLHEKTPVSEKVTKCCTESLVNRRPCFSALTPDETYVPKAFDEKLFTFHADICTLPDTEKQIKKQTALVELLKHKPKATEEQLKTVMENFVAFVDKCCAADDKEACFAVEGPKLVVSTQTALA

With `O=c1c(O)c(-c2ccc(O)cc2)oc2cc(O)cc(O)c12` [compound 10, kaempferol] as the molecule, how does the “HSA Affinity / logKa” value ([1]; PBS pH 7.4, 300.15 K, ex 280 nm, em 336 nm, n = 0.918, double-log) read?
The value was 6.830 log (L/mol).

What about the “BSA Affinity / logKa” value ([2]; PBS pH 7.4, 300.15 K, ex 280 nm, em 341 nm, n = 0.911, double-log) of the same molecule?
Its value is 7.106 log (L/mol).

What does the source list for `COc1cc(-c2oc3cc(O)cc(O)c3c(=O)c2O)ccc1O` [compound 11, isorhamnetin]?
HSA Affinity / logKa ([1]; PBS pH 7.4, 300.15 K, ex 280 nm, em 336 nm, n = 0.923, double-log): 6.798 log (L/mol); BSA Affinity / logKa ([2]; PBS pH 7.4, 300.15 K, ex 280 nm, em 341 nm, n = 0.941, double-log): 6.828 log (L/mol)

What does the source list for `O=C1C[C@@H](c2ccc(O)cc2)Oc2cc(O)cc(O)c21` [compound 9, naringenin]?
HSA Affinity / logKa [1]: 6.493 log (L/mol); BSA Affinity / logKa [2]: 6.982 log (L/mol)

`O=c1c(O[C@@H]2O[C@H](CO)[C@@H](O)[C@H](O)[C@H]2O)c(-c2ccc(O)cc2)oc2cc(O)cc(O)c12` [compound 1, astragalin] was tested. Which “HSA Affinity / logKa” value ([1]; PBS pH 7.4, 300.15 K, ex 280 nm, em 336 nm, n = 0.994, double-log) did it give?
Its value is 6.234 log (L/mol).

What about the “BSA Affinity / logKa” value ([2]; PBS pH 7.4, 300.15 K, ex 280 nm, em 341 nm, n = 0.963, double-log) of the same molecule?
Its value is 6.359 log (L/mol).

`O=c1cc(-c2ccc(O)cc2)oc2cc(O)cc(O)c12` [compound 8, apigenin] was tested. Which “HSA Affinity / logKa” value ([1]; PBS pH 7.4, 300.15 K, ex 280 nm, em 336 nm, n = 0.962, double-log) did it give?
Its value is 6.655 log (L/mol).

What about the “BSA Affinity / logKa” value ([2]; PBS pH 7.4, 300.15 K, ex 280 nm, em 341 nm, n = 0.870, double-log) of the same molecule?
The value was 7.086 log (L/mol).

Which “HSA Affinity / logKa” value [1] does the source give for `O=C1c2c(O)cc(O)cc2O[C@H](c2ccc(O)c(O)c2)[C@H]1O` [compound 5, taxifolin] here?
Its value is 6.748 log (L/mol).

What about the “BSA Affinity / logKa” value [2] of the same molecule?
Its value is 7.067 log (L/mol).

Which results are given for `O=c1c(O)c(-c2ccc(O)c(O)c2)oc2cc(O)cc(O)c12` [compound 7, quercetin]?
HSA Affinity / logKa [1]: 7.089 log (L/mol); BSA Affinity / logKa [2]: 7.299 log (L/mol)

Which “HSA Affinity / logKa” value ([1]; PBS pH 7.4, 300.15 K, ex 280 nm, em 336 nm, n = 0.960, double-log) does the source give for `O=c1c(O[C@@H]2O[C@H](CO)[C@H](O)[C@H](O)[C@H]2O)c(-c2ccc(O)c(O)c2)oc2cc(O)cc(O)c12` [compound 3, hyperoside] here?
The value was 6.802 log (L/mol).

And the “BSA Affinity / logKa” value ([2]; PBS pH 7.4, 300.15 K, ex 280 nm, em 341 nm, n = 0.950, double-log)?
Its value is 6.891 log (L/mol).

What does the source list for `O=c1cc(-c2ccc(O)c(O)c2)oc2cc(O)cc(O)c12` [compound 6, luteolin]?
HSA Affinity / logKa ([1]; PBS pH 7.4, 300.15 K, ex 280 nm, em 336 nm, n = 0.904, double-log): 7.064 log (L/mol); BSA Affinity / logKa ([2]; PBS pH 7.4, 300.15 K, ex 280 nm, em 341 nm, n = 0.923, double-log): 7.110 log (L/mol)

With `C[C@@H]1O[C@@H](OC[C@H]2O[C@@H](Oc3c(-c4ccc(O)c(O)c4)oc4cc(O)cc(O)c4c3=O)[C@H](O)[C@@H](O)[C@@H]2O)[C@H](O)[C@H](O)[C@H]1O` [compound 2, rutin] as the molecule, how does the “HSA Affinity / logKa” value ([1]; PBS pH 7.4, 300.15 K, ex 280 nm, em 336 nm, n = 0.992, double-log) read?
The value was 5.896 log (L/mol).

What about the “BSA Affinity / logKa” value ([2]; PBS pH 7.4, 300.15 K, ex 280 nm, em 341 nm, n = 0.962, double-log) of the same molecule?
The value was 6.686 log (L/mol).

What does the source list for `O=c1c(O[C@@H]2O[C@H](CO)[C@@H](O)[C@H](O)[C@H]2O)c(-c2ccc(O)c(O)c2)oc2cc(O)cc(O)c12` [compound 4, isoquercitrin]?
HSA Affinity / logKa ([1]; PBS pH 7.4, 300.15 K, ex 280 nm, em 336 nm, n = 0.936, double-log): 6.584 log (L/mol); BSA Affinity / logKa ([2]; PBS pH 7.4, 300.15 K, ex 280 nm, em 341 nm, n = 0.938, double-log): 7.095 log (L/mol)
